# From EPA's ToxValDB 9.5 (doi:10.2903/j.efsa.2006.83r)
# Where “and” joins values, the source holds several entries; their conditions need not be identical. Equal values may be shown once.
# Legend:
# Aphidius rhopalosiphi = experiment: LR50; higher = less toxic; conditions: acute; duration: 48 hours; mortality
# Tagia sp. = conditions: acute; duration: 14 days; mortality
# Apis mellifera = conditions: acute; duration: 48 hours; dermal; mortality
# Rattus norvegicus = conditions: acute; oral; gavage; M/F; clinical chemistry
# Daphnia magna = conditions: chronic/long-term; duration: 21 days
# Lepomis macrochirus = conditions: acute; duration: 96 hours; mortality
# Pimephales promelas = conditions: chronic/long-term
compound,measurement,setting,value
CNC(=O)ON=C(C)SC [Methomyl],LR50,Aphidius rhopalosiphi,0.25 g/ha
same,LC50,Tagia sp.,19 mg/kg
same,LD50,Apis mellifera,0.16 µg/piece
same,NOAEL,Rattus norvegicus,0.25 mg/kg-day
same,NOEC,Daphnia magna,0.0016 mg/L
same,LD50,"acute, oral, unspecified, mortality",30 mg/kg
same,NOAEL,"reproductive, development",75 mg/kg
same,LC50,Lepomis macrochirus,0.63 µg/mL
same,NOEC,Anas platyrhynchos; reproductive,150 mg/kg
same,LC50,"Anas platyrhynchos; short-term, oral, feed, mortality",3950 mg/kg
same,LD50,"Colinus virginianus; acute, oral, mortality",24.2 mg/kg and 30.4 mg/kg
same,NOEC,Colinus virginianus; reproduction developmental,150 mg/kg-day
same,NOEC,Pimephales promelas,0.073 mg/L
